# Paper PMC5728534 (PLoS ONE, 2017)
# Numbering of substitutions follows the chain as printed. “Also recorded” adds a separate entry of the source.
# Tests used:
# [1] = target: T1, OCT1*5 (Gly465Arg/Met420del) (Homo sapiens, UniProt O15245, DEL420-420/G465R/L160F); experiment: Ranitidine uptake in HEK293 cells overexpressing OCT1*5; format: in vitro ADME; conditions: 1 μM and 10 μM ranitidine, 2 min
# T1 construct: expressed in transfected cells; host or cells: HEK293 T-REx (Flp-In)
# T1 sequence (O15245 with tags, fused parts or gaps L160F/DEL420-420/G465R): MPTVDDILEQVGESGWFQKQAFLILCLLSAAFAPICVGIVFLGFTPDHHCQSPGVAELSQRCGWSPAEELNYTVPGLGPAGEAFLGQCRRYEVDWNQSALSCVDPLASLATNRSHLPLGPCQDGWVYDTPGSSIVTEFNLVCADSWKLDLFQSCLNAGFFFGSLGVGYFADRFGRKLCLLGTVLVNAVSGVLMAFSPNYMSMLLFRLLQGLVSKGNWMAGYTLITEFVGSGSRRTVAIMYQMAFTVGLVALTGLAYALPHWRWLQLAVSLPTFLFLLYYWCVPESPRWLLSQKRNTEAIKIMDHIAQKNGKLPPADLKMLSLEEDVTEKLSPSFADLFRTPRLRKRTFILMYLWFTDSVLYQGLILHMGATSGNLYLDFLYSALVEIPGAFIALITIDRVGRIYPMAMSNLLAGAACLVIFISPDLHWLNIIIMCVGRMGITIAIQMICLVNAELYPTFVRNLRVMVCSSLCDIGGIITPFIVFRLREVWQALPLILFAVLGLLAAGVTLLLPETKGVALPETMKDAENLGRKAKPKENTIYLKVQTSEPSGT
# Excerpt: (§1) HEK293 or CHO cells overexpressing the human OCT1 alleles *1A (characterized by the amino acid substitution Met408Val), *1B, *1C (Phe160Leu), *1D (Pro341Leu/Met408Val), *2 (Met420del), *3 (Arg61Cys), *4 (Gly401Ser), *5 (Gly465Arg/Met420del), *6 (Cys88Arg/Met420del), *7 (Ser14Phe), *8A (Arg488Met), *8B (Arg488Met/Met408Val), *9 (Pro117Leu), *10 (Ser189Leu), *11 (Ile449Thr), *12 (Ser29Leu), or *13 (Thr245Met), the human OCT2 reference and variant alleles (Ala270Ser), human OCT3, and the control cells (transfected with the empty pcDNA5 vector) were generated by targeted chromosomal integration using the Flp-In™ System (Life Technologies, Darmstadt, Germany).
# (§2) Six hundred thousand HEK293 or CHO cells were plated per well in 12-well plates (pre-coated with poly-D-lysine) and were grown for 48 hours to reach confluence. Cells were kept at 37°C and 5% CO2 in DMEM (HEK293) or RPMI (CHO), supplemented with 10% FCS, 100 U/ml penicillin, and 100 μg/ml streptomycin. Uptake experiments were performed at pH 7.4 using HBSS supplemented with 10 mM HEPES buffer (herein referred to as HBSS+). […]
# (§3) For all transport measurements, the intracellular amount of substrate was normalized to the total amount of protein of the sample as measured using the bicinchoninic acid assay [49].
# (§4) For quantification of intracellular substrates, the cell debris were removed by centrifugation at 17,000 x g for 10 min. […]
# OCT1*13 (Thr245Met) = target: T2, OCT1*13 (Thr245Met) (Homo sapiens, UniProt O15245, L160F/T245M); experiment: Ranitidine uptake in HEK293 cells overexpressing OCT1*13; format: in vitro ADME; conditions: 1 μM and 10 μM ranitidine, 2 min
# T2 construct: expressed in transfected cells; host or cells: HEK293 T-REx (Flp-In)
# T2 sequence (O15245 1-554 L160F/T245M): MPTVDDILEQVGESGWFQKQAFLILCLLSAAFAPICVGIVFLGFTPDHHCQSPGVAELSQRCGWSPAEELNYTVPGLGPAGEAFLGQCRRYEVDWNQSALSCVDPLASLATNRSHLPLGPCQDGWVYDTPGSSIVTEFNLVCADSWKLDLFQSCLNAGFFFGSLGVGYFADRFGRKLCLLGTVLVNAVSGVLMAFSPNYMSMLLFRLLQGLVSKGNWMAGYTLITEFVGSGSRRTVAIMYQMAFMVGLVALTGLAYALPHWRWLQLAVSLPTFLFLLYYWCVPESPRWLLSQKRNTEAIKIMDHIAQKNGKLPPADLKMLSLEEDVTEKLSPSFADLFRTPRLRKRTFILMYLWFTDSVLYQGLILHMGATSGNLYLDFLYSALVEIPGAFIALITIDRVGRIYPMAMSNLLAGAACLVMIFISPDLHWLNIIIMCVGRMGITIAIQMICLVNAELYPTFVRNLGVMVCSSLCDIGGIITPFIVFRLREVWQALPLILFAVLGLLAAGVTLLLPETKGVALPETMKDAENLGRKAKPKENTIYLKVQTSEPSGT
# Excerpt: as §1, §2, §3, §4
# OCT2 Ser270 (Ala270Ser) = target: T3, OCT2 Ser270 (Ala270Ser) (Homo sapiens, UniProt O15244); experiment: Ranitidine uptake in HEK293 cells overexpressing OCT2 variant (Ser270); format: in vitro ADME; conditions: 1 μM ranitidine, 2 min, not significant
# T3 sequence (O15244 1-555): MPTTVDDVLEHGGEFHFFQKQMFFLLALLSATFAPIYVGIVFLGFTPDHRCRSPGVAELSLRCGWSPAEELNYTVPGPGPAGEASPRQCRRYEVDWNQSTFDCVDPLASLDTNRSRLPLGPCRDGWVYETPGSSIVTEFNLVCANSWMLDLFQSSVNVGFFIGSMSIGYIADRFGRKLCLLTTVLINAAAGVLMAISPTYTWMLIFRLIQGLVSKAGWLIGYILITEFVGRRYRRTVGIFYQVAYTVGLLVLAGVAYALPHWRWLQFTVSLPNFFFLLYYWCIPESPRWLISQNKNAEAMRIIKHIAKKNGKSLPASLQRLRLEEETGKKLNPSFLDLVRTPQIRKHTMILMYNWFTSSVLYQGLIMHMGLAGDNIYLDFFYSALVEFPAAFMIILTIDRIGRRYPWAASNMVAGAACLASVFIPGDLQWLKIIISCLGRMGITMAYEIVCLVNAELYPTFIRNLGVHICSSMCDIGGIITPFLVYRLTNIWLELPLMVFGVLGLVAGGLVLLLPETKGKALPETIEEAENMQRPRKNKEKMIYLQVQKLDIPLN
# Excerpt: as §1, §2, §3, §4
# OCT1*2 (Met420del) = target: T4, OCT1*2 (Met420del) (Homo sapiens, UniProt O15245, DEL420-420/L160F)
# T4 sequence (O15245 with tags, fused parts or gaps L160F/DEL420-420): T1 sequence (O15245 with tags, fused parts or gaps L160F/DEL420-420/G465R) with R464G
# Excerpt: as §1, §2, §3, §4
# [2] = parameters: method as in ref 5 = [5]; 5 Inc. G. PrZANTAC ® [product monograph]. Canada: GlaxoSmithKline Inc.; 2015 [updated 15.01.2015; cited 2016 21.10.2016].; conditions: long-term toxicity tests in animals; cited from earlier work
# [3] = dogs; cited from earlier work
compound,measurement,setting,value
"CNC(=C[N+](=O)[O-])NCCSCc1ccc(CN(C)C)o1 [ranitidine, Ranitidine]",ranitidine transport activity,[1],completely lacked ranitidine uptake; also recorded: complete lack of ranitidine transport activity
same,ranitidine transport activity,OCT1*13 (Thr245Met),completely lacked ranitidine uptake; also recorded: complete lack of ranitidine transport activity
same,"reduction of ranitidine uptake, Ser270 allele in comparison to the Ala270 allele",OCT2 Ser270 (Ala270Ser),9%
same,decrease of vmax compared to the reference allele,OCT1*2 (Met420del); OCT1*2,more than 50%
same,Vmax (±SEM),"OCT1*2 (Met420del); OCT1*2 Met420del, HEK293, 10-600 μM ranitidine, 2 min",402.04 (±51.24) pmol x min^-1 x mg protein^-1
same,plasma concentrations exceeding the human maximal plasma concentration without significant adverse reactions,[2],50 fold
same,reduction of basolateral uptake by co-administration of probenecid,[3],four-fold
